Measured values published in patent US5175320A, “Fluorinated bile acid derivatives, processes for the preparation thereof and pharmaceutical compositions containing them” (Giuliani S.p.A., priority 1989, dated 1992).
Values after ≈ are worked out from the molar mass of the structure shown. “Also recorded” adds a separate entry of the source.

What was measured:
human stools = format: in vitro ADME
[1] = detergency, critical micellar concentration; format: physicochemical; conditions: for CMC: Table 1
Procedure: (§1) 6-FCDCA has been submitted to a series of physico-chemical determinations following a previously described protocol. Particularly, the lypophilicity, detergency, water solubility and pKa were measured.

[2] = water solubility (of the protonated forms); format: physicochemical
Procedure: as §1, with “measured. | rK' = relative values Water solubility of the protonated forms Data on water solubility are reported on the enclosed table 1.” for “measured.”

[3] = lypophilicity by C/18 reverse phase HPLC; format: physicochemical; conditions: for rK' C-18: rK' = relative values, C-18 reverse phase HPLC
Procedure: as §1

pKa = format: physicochemical
Text: 6-FCDCA has been submitted to a series of physico-chemical determinations following a previously described protocol.

| Structure (SMILES) | protection of the 7-hydroxy group from oxidation and 7-dehydroxylation (human stools) | stability to intestinal bacteria compared with CDCA (human stools) | critical micellar concentration [1] | CMC [1] | water solubility compared with CDCA [2] | solubility ([2]; water) | lypophilicity compared with natural analogues ([3]; C/18 reverse phase HPLC, result in words) | rK' C-18 [3] | pKa (pKa) | water solubility [2] | S (water solubility) ([2]; protonated forms, Table 1) |
| --- | --- | --- | --- | --- | --- | --- | --- | --- | --- | --- | --- |
| C[C@H](CCC(=O)O)[C@H]1CC[C@H]2[C@@H]3[C@H](O)C(F)[C@H]4C[C@H](O)CC[C@]4(C)[C@H]3CC[C@]12C (stereo partly drawn) [Example 6-FCDCA, 3α,7α-Dihydroxy-6-fluoro-5α-cholan-24-oic acid] | efficaciously protects the hydroxy group in 7-position to oxidation and 7-dehydroxylation | more stable to intestinal bacteria | 10 mmol/L | 10 mmol/1 | slightly higher than that of CDCA | 80 µM (≈ 32.8 µg/mL) | lower when compared with CDCA; also recorded: intermediate between CDCA and UDCA; also recorded: less lypohilic than CDCA | 0.6 | 5 | – | – |
| C[C@H](CCC(=O)O)[C@H]1CC[C@H]2[C@@H]3[C@@H](O)C[C@@H]4C[C@H](O)CC[C@]4(C)[C@H]3CC[C@]12C [UDCA, ursodeoxycholic, reference compound] | – | – | – | – | – | – | – | 0.4 | – | – | – |
| C[C@H](CCC(=O)O)[C@H]1CC[C@H]2[C@@H]3[C@H](O)C[C@@H]4C[C@H](O)CC[C@]4(C)[C@H]3CC[C@]12C [CDCA, chenodeoxycholic, reference compound] | – | – | – | 9 mmol/1 | – | – | – | 0.89 | – | 30 µmol | 30 µM |
